Assay results from BigSolDB 2.1.

O=C(O)CCCCCCCCCCCC(=O)O
solubility (mole fraction)
Conditions | 283.15 K | 288.15 K | 293.15 K | 298.15 K | 303.15 K | 308.15 K | 313.15 K | 318.15 K | 323.15 K
in acetic acid | – | 0.00231 | 0.00309 | 0.00418 | 0.00656 | 0.00975 | 0.0138 | 0.0201 | 0.0253
in acetone | 0.00192 | 0.00207 | 0.00302 | 0.00409 | 0.00633 | 0.00892 | 0.0128 | 0.0166 | 0.0234
in ethanol | 0.00277 | 0.00286 | 0.00388 | 0.00441 | 0.00674 | 0.0115 | 0.0149 | 0.0207 | 0.0263
in ethyl acetate | 0.00072 | 0.00083 | 0.00111 | 0.00149 | 0.00254 | 0.00361 | 0.00524 | 0.00722 | 0.011
in methanol | 0.00291 | 0.00315 | 0.00388 | 0.00449 | 0.00541 | 0.00845 | 0.0106 | 0.0126 | 0.015
